In patent publication US8921362B2, “6,7-dialkoxy quinazoline derivatives and methods of treating drug resistant and other tumors” (Natco Pharma Limited, priority 2008, dated 2014):

Tests used:
ERBB4 = ERBB4 (Homo sapiens, UniProt Q15303); test: KinomeScan; assay type: binding; parameters: purchased Ambit Biosciences Corp; host or cells: T7 phage in E. coli host derived from BL21; settings: read-out: % Ctrl @ 10000 nM
Experimental: (§1) Kinase assays: Assays were performed as described in Fabian et al. (2005) Nature Biotechnology, vol. 23, p. 329. Kinase-tagged T7 phage strains were grown in parallel in 24 or 96-well blocks in an E. coli host derived from the BL21 strain. E. coli were grown to log-phase and infected with T7 phage from a frozen stock (multiplicity of infection ˜0.1) and incubated with shaking at 32° C. until lysis (−90 minutes). The lysates were centrifuged and filtered to remove cell debris. […] The liganded beads were blocked with excess biotin and washed with blocking buffer (SeaBlock (Pierce), 1% BSA, 0.05% Tween 20, 1 mM DTT) to remove unbound ligand and to reduce non-specific phage binding.
(§2) Test compounds were prepared as 40× stocks in DMSO and diluted into the aqueous environment. 2.5% DMSO was added to control assays lacking a test compound. All reactions were performed in polystyrene 96-well plates that had been pretreated with blocking buffer in a final volume of 0.04 ml. […] The phage titer in the eluates was measured by quantitative PCR.

ERBB2 = ERBB2 (Homo sapiens, UniProt P04626); test: KinomeScan; assay type: binding; parameters: purchased Ambit Biosciences Corp; host or cells: T7 phage in E. coli host derived from BL21; settings: read-out: % Ctrl @ 10000 nM
Sequence of ERBB2 (P04626 23-1255): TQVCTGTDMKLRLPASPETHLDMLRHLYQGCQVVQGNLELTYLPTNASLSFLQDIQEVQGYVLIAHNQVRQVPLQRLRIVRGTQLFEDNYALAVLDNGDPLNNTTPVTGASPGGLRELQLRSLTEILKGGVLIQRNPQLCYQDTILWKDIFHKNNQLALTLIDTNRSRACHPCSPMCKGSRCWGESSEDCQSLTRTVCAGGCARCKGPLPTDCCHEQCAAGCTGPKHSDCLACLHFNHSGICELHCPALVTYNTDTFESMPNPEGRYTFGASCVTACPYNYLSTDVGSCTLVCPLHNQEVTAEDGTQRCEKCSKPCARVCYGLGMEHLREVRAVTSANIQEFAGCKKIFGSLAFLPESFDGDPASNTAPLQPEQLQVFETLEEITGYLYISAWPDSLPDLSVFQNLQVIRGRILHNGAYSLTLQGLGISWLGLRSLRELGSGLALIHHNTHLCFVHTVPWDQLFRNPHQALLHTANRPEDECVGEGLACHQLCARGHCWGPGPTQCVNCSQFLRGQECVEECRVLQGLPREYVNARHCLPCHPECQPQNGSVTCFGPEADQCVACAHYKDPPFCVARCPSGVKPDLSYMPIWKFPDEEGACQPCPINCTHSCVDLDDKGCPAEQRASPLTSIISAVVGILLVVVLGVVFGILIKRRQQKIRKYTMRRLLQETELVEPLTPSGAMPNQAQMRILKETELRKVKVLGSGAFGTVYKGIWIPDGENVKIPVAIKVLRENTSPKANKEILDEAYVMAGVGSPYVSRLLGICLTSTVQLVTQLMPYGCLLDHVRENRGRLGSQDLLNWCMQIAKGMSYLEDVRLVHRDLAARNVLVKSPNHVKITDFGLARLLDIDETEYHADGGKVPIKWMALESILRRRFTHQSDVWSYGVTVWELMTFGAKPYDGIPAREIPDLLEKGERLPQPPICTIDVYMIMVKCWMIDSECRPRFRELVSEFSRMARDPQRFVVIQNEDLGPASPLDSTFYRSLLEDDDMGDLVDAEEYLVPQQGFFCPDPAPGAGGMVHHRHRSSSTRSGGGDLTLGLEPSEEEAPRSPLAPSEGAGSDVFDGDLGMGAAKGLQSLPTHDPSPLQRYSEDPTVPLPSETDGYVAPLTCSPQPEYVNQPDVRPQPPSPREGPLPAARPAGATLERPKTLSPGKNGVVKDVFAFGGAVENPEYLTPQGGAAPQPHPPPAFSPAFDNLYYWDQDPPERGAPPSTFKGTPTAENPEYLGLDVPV
Experimental: as §1, §2

[1] = Acute toxicity (LD0, LD50); assay type: in vivo; settings: both, mouse, in vivo, po, 7 days
Experimental: […]. The doses 500, 750, 1000 and 2000 mg/Kg were administered orally. Each group included 5 mice. […] The survived animals were autopsied for asserting the absorption of compound through g.i.t. The LD50 was determined according to the method described in Litchfield and Wilcoxon (J. Pharmacol. Exp. Ther. 1949, 96:99-113).

A549 human lung tumors = test: Evaluation of ED50 (lung section and tumor regression studies); assay type: in vivo, nude mice; settings: Mus musculus, oral route
Experimental: ED50 values were evaluated based on the lung section and tumor regression studies.

PAK2 = target: T1, PAK2 (Homo sapiens, UniProt Q13177); test: KinomeScan; assay type: binding; settings: read-out: % Ctrl @ 10000 nM
T1 construct: host or cells: E. coli host derived from BL21, infected with T7 phage
T1 sequence (Q13177 whole entry): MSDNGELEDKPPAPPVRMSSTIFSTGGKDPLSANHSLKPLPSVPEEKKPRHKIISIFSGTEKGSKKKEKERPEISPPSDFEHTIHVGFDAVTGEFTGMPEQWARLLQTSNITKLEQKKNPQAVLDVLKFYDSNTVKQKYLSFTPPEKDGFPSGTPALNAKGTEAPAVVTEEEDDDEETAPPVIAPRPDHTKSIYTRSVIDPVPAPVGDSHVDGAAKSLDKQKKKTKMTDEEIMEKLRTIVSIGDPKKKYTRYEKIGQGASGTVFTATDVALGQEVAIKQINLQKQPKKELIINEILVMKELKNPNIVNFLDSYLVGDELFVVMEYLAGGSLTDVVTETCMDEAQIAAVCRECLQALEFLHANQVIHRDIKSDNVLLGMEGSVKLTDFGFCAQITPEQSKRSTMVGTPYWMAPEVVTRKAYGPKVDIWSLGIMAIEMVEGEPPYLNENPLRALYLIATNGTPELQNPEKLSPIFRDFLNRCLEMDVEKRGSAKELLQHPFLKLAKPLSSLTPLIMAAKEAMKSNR
Experimental: as §1, §2

MET = target: T2, MET (Homo sapiens, UniProt P08581); test: KinomeScan; assay type: binding; settings: read-out: % Ctrl @ 10000 nM
T2 construct: host or cells: E. coli host derived from the BL21 strain, infected with T7 phage
Experimental: as §1, §2

ABL1(F317L) = target: T3, ABL1(F317L) (Homo sapiens, UniProt P00519, F317L); test: KinomeScan; assay type: binding; settings: read-out: % Ctrl @ 10000 nM
T3 construct: host or cells: E. coli (BL21-derived), T7 phage lysate
T3 sequence (P00519 whole entry F317L): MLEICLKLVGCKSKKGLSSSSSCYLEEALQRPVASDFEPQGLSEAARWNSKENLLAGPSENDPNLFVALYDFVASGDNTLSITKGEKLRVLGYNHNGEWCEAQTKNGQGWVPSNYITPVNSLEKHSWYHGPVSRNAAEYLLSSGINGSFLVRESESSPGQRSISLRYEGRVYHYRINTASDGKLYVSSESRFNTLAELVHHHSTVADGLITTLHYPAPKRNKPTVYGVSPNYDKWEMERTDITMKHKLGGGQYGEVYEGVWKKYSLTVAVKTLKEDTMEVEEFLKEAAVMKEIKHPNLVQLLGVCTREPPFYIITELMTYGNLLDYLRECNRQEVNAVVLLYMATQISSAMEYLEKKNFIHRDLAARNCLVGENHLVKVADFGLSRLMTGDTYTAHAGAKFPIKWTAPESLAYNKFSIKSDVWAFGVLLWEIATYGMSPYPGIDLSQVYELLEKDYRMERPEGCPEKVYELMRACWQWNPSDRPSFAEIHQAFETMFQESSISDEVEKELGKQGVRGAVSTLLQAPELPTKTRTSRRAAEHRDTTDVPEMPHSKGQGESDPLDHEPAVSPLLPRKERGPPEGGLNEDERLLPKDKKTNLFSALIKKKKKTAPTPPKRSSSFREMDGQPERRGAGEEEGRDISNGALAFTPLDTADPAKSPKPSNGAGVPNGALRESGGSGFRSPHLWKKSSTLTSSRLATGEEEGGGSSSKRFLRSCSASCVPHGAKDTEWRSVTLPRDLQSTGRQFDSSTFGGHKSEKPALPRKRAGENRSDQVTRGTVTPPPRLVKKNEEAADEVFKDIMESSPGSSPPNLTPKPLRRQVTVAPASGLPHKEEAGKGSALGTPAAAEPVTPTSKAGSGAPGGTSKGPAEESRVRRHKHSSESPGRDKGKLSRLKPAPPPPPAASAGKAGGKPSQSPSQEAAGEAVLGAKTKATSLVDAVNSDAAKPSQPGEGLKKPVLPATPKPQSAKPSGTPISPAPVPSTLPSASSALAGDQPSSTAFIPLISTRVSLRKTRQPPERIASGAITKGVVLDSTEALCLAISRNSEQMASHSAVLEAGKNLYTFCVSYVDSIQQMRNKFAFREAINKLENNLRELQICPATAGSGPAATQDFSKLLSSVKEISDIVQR
Experimental: as §1, §2

MLK3 = target: T4, MLK3 (Homo sapiens, UniProt Q16584); test: KinomeScan; assay type: binding; settings: read-out: % Ctrl @ 10000 nM
T4 construct: host or cells: T7 phage grown in E. coli host derived from BL21
T4 sequence (Q16584 whole entry): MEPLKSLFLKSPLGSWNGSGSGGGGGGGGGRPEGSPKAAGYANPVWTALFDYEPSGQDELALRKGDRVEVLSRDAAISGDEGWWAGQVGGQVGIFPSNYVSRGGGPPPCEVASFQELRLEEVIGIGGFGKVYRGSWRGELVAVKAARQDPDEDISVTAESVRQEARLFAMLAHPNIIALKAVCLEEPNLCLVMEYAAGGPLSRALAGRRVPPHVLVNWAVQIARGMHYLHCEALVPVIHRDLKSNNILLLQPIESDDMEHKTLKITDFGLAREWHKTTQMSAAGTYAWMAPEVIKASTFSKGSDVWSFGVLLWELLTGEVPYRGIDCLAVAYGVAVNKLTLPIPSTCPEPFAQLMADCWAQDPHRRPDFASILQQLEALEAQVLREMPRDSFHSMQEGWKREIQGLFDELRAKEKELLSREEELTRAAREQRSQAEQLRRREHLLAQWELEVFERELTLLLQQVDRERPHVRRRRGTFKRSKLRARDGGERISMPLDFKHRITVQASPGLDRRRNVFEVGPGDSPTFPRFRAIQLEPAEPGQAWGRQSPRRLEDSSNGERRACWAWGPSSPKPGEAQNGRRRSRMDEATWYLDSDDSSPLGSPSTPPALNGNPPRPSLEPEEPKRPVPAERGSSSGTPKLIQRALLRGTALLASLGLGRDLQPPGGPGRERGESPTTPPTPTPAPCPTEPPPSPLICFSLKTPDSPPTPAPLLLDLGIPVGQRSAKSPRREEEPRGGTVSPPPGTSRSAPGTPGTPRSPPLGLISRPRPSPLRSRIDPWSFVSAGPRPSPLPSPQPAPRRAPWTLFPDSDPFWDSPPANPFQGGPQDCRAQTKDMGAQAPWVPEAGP
Experimental: as §1, §2

MELK = target: T5, MELK (Homo sapiens, UniProt Q14680); test: KinomeScan; assay type: binding; settings: read-out: % Ctrl @ 10000 nM
T5 construct: host or cells: E. coli host derived from the BL21 strain, infected with T7 phage
T5 sequence (Q14680 whole entry): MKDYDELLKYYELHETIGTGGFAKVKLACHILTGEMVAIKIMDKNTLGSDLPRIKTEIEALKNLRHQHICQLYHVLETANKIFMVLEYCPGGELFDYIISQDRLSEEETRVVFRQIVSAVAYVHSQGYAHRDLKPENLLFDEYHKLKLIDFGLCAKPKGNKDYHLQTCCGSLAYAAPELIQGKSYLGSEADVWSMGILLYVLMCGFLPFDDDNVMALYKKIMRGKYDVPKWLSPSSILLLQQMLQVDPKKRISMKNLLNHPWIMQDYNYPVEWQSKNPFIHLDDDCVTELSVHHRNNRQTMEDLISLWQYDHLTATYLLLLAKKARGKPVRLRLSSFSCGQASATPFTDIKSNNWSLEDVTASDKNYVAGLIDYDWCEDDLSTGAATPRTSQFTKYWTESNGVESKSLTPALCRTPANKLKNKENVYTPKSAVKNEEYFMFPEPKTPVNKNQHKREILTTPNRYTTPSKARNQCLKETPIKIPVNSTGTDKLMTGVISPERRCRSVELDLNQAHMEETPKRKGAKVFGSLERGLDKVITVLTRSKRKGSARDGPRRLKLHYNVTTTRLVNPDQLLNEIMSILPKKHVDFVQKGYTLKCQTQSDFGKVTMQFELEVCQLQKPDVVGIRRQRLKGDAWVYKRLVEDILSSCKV
Experimental: as §1, §2

PHKG1 = target: T6, PHKG1 (Homo sapiens, UniProt Q16816); test: KinomeScan; assay type: binding; settings: read-out: % Ctrl @ 10000 nM
T6 construct: host or cells: E. coli host derived from BL21, infected with T7 phage
Experimental: as §1, §2

TLK1 = target: T7, TLK1 (Homo sapiens, UniProt Q9UKI8); test: KinomeScan; assay type: binding; settings: read-out: % Ctrl @ 10000 nM
T7 construct: host or cells: E. coli host derived from BL21, T7 phage
Experimental: as §1, §2

EPHB2 = target: T8, EPHB2 (Homo sapiens, UniProt P29323); test: KinomeScan; assay type: binding; settings: read-out: % Ctrl @ 10000 nM
T8 construct: purchased Ambit Biosciences Corp; host or cells: T7 phage in E. coli host derived from BL21
Experimental: as §1, §2

ERK8 = target: T9, ERK8 (Homo sapiens, UniProt Q8TD08); test: KinomeScan; assay type: binding; settings: read-out: % Ctrl @ 10000 nM
T9 construct: purchased Ambit Biosciences Corp; host or cells: T7 phage in E. coli host derived from BL21
Experimental: as §1, §2

[2] = target: T10, TYK2(JH2domain-pseudokinase) (Homo sapiens, UniProt P29597); test: KinomeScan; assay type: binding; settings: read-out: % Ctrl @ 10000 nM
T10 construct: TYK2(JH2domain-pseudokinase); host or cells: E. coli host derived from BL21, T7 phage
Experimental: as §1, §2

EPHA3 = target: T11, EPHA3 (Homo sapiens, UniProt P29320); test: KinomeScan; assay type: binding; settings: read-out: % Ctrl @ 10000 nM
T11 construct: purchased Ambit Biosciences Corp; host or cells: T7 phage in E. coli host derived from BL21
Experimental: as §1, §2

CSK = target: T12, CSK (Homo sapiens, UniProt P41240); test: KinomeScan; assay type: binding; settings: read-out: % Ctrl @ 10000 nM
T12 construct: host or cells: T7 phage in E. coli host derived from BL21
Experimental: as §1, §2

FER = target: T13, FER (Homo sapiens, UniProt P16591); test: KinomeScan; assay type: binding; settings: read-out: % Ctrl @ 10000 nM
T13 construct: host or cells: T7 phage in E. coli host derived from BL21
Experimental: as §1, §2

[3] = target: T14, JAK1(JH2domain-pseudokinase) (Homo sapiens, UniProt P23458); test: KinomeScan; assay type: binding; settings: read-out: % Ctrl @ 10000 nM
T14 construct: JAK1(JH2domain-pseudokinase); host or cells: T7 phage grown in E. coli host derived from BL21
Experimental: as §1, §2

ROS1 = target: T15, ROS1 (Homo sapiens, UniProt P08922); test: KinomeScan; assay type: binding; settings: read-out: % Ctrl @ 10000 nM
T15 construct: host or cells: E. coli host derived from BL21, T7 phage display
Experimental: as §1, §2

MST1 = target: T16, MST1 (Homo sapiens, UniProt Q13043); test: KinomeScan; assay type: binding; settings: read-out: % Ctrl @ 10000 nM
T16 construct: host or cells: T7 phage grown in E. coli host derived from BL21
Experimental: as §1, §2

CHEK1 = target: T17, CHEK1 (Homo sapiens, UniProt O14757); test: KinomeScan; assay type: binding; settings: read-out: % Ctrl @ 10000 nM
T17 construct: host or cells: T7 phage in E. coli host derived from BL21
T17 sequence (O14757 whole entry): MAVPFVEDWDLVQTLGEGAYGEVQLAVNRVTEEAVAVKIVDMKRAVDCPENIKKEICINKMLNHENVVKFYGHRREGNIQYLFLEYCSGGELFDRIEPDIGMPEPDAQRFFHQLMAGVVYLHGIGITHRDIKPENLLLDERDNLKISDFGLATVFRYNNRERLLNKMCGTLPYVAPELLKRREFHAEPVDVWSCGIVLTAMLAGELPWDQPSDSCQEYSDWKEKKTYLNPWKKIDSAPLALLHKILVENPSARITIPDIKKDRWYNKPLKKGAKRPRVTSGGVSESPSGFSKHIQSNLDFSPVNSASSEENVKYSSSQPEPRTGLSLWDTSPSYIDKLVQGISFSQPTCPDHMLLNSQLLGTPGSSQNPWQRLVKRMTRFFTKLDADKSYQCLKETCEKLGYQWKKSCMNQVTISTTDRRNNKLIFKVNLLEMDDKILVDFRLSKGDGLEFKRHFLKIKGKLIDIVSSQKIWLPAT
Experimental: as §1, §2

AAK1 = target: T18, AAK1 (Homo sapiens, UniProt Q2M2I8); test: KinomeScan; assay type: binding; settings: read-out: % Ctrl @ 10000 nM
T18 construct: host or cells: E. coli (BL21-derived), T7 phage lysate
Experimental: as §1, §2

FGFR1 = target: T19, FGFR1 (Homo sapiens, UniProt P11362); test: KinomeScan; assay type: binding; settings: read-out: % Ctrl @ 10000 nM
T19 construct: host or cells: T7 phage in E. coli host derived from BL21
Experimental: as §1, §2

HPK1 = target: T20, HPK1 (Homo sapiens, UniProt Q92918); test: KinomeScan; assay type: binding; settings: read-out: % Ctrl @ 10000 nM
T20 construct: host or cells: T7 phage in E. coli host derived from BL21
Experimental: as §1, §2

DAPK3 = target: T21, DAPK3 (Homo sapiens, UniProt O43293); test: KinomeScan; assay type: binding; settings: read-out: % Ctrl @ 10000 nM
T21 construct: purchased Ambit Biosciences Corp (KinomeScan); host or cells: T7 phage in E. coli host derived from BL21
Experimental: as §1, §2

DCAMKL3 = target: T22, DCAMKL3 (Homo sapiens, UniProt Q9C098); test: KinomeScan; assay type: binding; settings: read-out: % Ctrl @ 10000 nM
T22 construct: purchased Ambit Biosciences Corp (KinomeScan); host or cells: T7 phage in E. coli host derived from BL21
Experimental: as §1, §2

MYLK2 = target: T23, MYLK2 (Homo sapiens, UniProt Q9H1R3); test: KinomeScan; assay type: binding; settings: read-out: % Ctrl @ 10000 nM
T23 construct: host or cells: T7 phage grown in E. coli host derived from BL21
Experimental: as §1, §2

MARK1 = target: T24, MARK1 (Homo sapiens, UniProt Q9P0L2); test: KinomeScan; assay type: binding; settings: read-out: % Ctrl @ 10000 nM
T24 construct: host or cells: E. coli host derived from the BL21 strain, infected with T7 phage
Experimental: as §1, §2

FRK = target: T25, FRK (Homo sapiens, UniProt P42685); test: KinomeScan; assay type: binding; settings: read-out: % Ctrl @ 10000 nM
T25 construct: host or cells: T7 phage in E. coli host derived from BL21
Experimental: as §1, §2

C#Cc1cccc(Nc2ncnc3cc(OC)c(OCCCN4CCOCC4)cc23)c1 [NRC-2694, N-(3-ethynylphenyl)-7-methoxy-6-[3-(4-morpholinyl)propoxy]-4-quinazolinamine]
remaining binding at 10 µM (ERBB4): 3.3% | remaining binding at 10 µM (ERBB2): 31% | LD0 [1]: 2000 mg/kg | ED50 (A549 human lung tumors): 6.3 mg/kg | remaining binding at 10 µM (PAK2): 67% | remaining binding at 10 µM (MET): 33% | remaining binding at 10 µM (ABL1(F317L)): 33% | remaining binding at 10 µM (MLK3): 72% | remaining binding at 10 µM (MELK): 57% | remaining binding at 10 µM (PHKG1): 50% | remaining binding at 10 µM (TLK1): 77% | remaining binding at 10 µM (EPHB2): 83% | remaining binding at 10 µM (ERK8): 62% | remaining binding at 10 µM [2]: 23% | remaining binding at 10 µM (EPHA3): 56% | remaining binding at 10 µM (CSK): 53% | remaining binding at 10 µM (FER): 94% | remaining binding at 10 µM [3]: 81% | remaining binding at 10 µM (ROS1): 46% | remaining binding at 10 µM (MST1): 100% | remaining binding at 10 µM (CHEK1): 42% | remaining binding at 10 µM (AAK1): 38% | remaining binding at 10 µM (FGFR1): 64% | remaining binding at 10 µM (HPK1): 47% | remaining binding at 10 µM (DAPK3): 34% | remaining binding at 10 µM (DCAMKL3): 14% | remaining binding at 10 µM (MYLK2): 4.8% | remaining binding at 10 µM (MARK1): 56% | remaining binding at 10 µM (FRK): 10%
